What was measured:
tyrosinase [1] = assay: Tyrosinase inhibitory activity using L-tyrosine; format: biochemical; conditions: substrate L-tyrosine, sample 0.5 mg/ml, 25° C., 15 minutes, 475 nm
Description: The inhibitory activity of tyrosinase, which is an enzyme that plays an important role in the melanin synthesis process, was confirmed using the Syzygium formosum extract.
500 μl of 1 mM L-tyrosine, 900 μl of 0.1 M phosphate buffer (pH 6.8), and 100 μl of 0.5 mg/ml Syzygium formosum extract dissolved in 10% DMSO (Example 1, Example 2, and Comparative Examples 1 to 7) were mixed, and then 100 μl of tyrosinase (53.7 U/ml) was added thereto and reacted at a temperature of 25° C. for 15 minutes. At this time, DMSO was used as a control group, and 0.5 mg/ml arbutin was used as a positive control group.
The absorbance of the reaction solution was measured at 475 nm for 15 minutes at time intervals of 30 seconds, and then, the tyrosinase inhibitory activity (%) was calculated using Equation 1.

B16F10 cell line = assay: Melanin production inhibitory activity in B16F10 cells; format: cell-based, mice; conditions: extract 0.1 mg/ml, 72 hours, 400 nm
Description: The cell line used in the test was B16F10 cell line (Korean Cell Line Bank, Korea), which is a malignant melanoma cell in mice. The cryopreserved cell line was cultured in a culture dish, and after cell line stabilization was confirmed while repeating the subculture twice to three times in the cycle of 2 to 3 days after the first cell culture, cells were cultured in a 48-well plate by the number of cells of 1×10^5/well. Then, the test was prepared by incubating for 24 hours. […] 300 μl of the medium containing each of the sample, the negative control group, and the positive control group was added to a 48-well plate on which cell had been cultured in advance, and cell were cultured for 72 hours at 37° C. under 5% CO2 while the medium was exchanged every day. Thereafter, the medium was removed by washing each well with PBS, and then the cells were treated with 200 μl of 1N NaOH. Thereafter, absorbance was measured at 400 nm using a SpectraMax M2 (Molecular devices, USA). The degree of inhibition on the production of melanin was calculated by comparing the absorbance of the test group with that of the control group treated with the negative control group by using Equation 2. [formula]

tyrosinase [2] = assay: Tyrosinase inhibitory activity using L-DOPA; format: biochemical; conditions: substrate L-DOPA, 25° C., 5 minutes, 475 nm
Description: Tyrosinase inhibitory activity was confirmed using L-DOPA.
• Tyrosinase solution: Tyrosinase was dissolved in 0.1M PBS (Phosphate buffered saline) buffer to prepare a solution having a concentration of 110 U/ml. • Substrate: L-DOPA was dissolved in 0.1M PBS buffer to be in the concentration of 5 mM. • Sample Usage: Diluted with distilled water to a corresponding concentration and used. • Negative control: Distilled water was added instead of the sample.
Syzygium formosum extract (Example 1, Example 2, and Comparative Examples 1 to 7), 30 μl of negative control (control), 30 μl of positive control (positive control), 70 μl of 0.1M PBS buffer, and 30 μl of substrate were added. Then, 20 μl of tyrosinase was added thereto, and the reaction was performed at a temperature of 25° C. for 5 minutes. After completion of the reaction, absorbance was measured at 475 nm. The tyrosinase inhibitory activity (%) was calculated using Equation 1 by comparing the absorbance of the test group with that of the control group.

- Inhibitory activity (%) (tyrosinase [1]): 49.1%
- Inhibitory activity (%) (tyrosinase [2]): 18.6%
SMILES: OC[C@H]1O[C@@H](Oc2ccc(O)cc2)[C@H](O)[C@@H](O)[C@@H]1O [Arbutin, arbutin]
- Inhibitory activity (%) (B16F10 cell line): 21.1%

— US20250195403A1, “SKIN WHITENING, ANTI-BACTERIAL OR ANTI-ATOPIC COMPOSITION, CONTAINING SYZYGIUM FORMOSUM EXTRACT AS ACTIVE INGREDIENT” (CARBOEXPERT INC., priority 2018, published 2025)
